In paper PMC11656837, “pH-Responsive Peptide Nanoparticles Deliver Macromolecules to Cells via Endosomal Membrane Nanoporation” (ACS Nano, 2024):
pEC50: −log10 of the molar value. Where no end group is shown, it is not given here.

Key:
HeLa cells [1] = conditions: HeLa, 48 h
Description: For this, we use PE-III, the third domain of the Pseudomonas exotoxin. This 25 kDa enzyme ADP ribosylates ribosomal elongation factor 2, thereby blocking protein synthesis and triggering apoptosis. […] Thus, apoptosis will occur only if an exogenous agent, such as a peptide, enables cytosolic delivery of the 4 × 3 nm PE-III protein, Figure 2A.
Comparison of peptide concentration midpoints requires a constant concentration of PE-III in each experiment. […] The major disadvantage of the PE-III assay to detect delivery is that only a few molecules of active PE-III delivered to the cytosol[36] will produce a positive result. To partly mitigate this effect in the assays described below, we use a constant 40 nM PE-III. At such a low concentration, each endosome will contain an average of fewer than one PE-III molecule if we assume passive entrapment of the cargo (see the Supporting Information).
The no treatment (no tx) control group contained cells but no peptide or PE-III enzyme. The Alamar Blue intensity of this group was defined as 100% viability. Media alone without cells was defined as 0% viability.
The concentration range used for each peptide was adjusted according to preliminary measurements of activity in this assay. We assessed PE-III delivery by measuring cell viability using Alamar Blue.
Fifteen thousand HeLa cells were seeded in a clear bottom, black-walled 96-well plate overnight at 37 °C with 5% CO2 in complete media (DMEM + phenol red +10% FBS + antimycotic/antibiotic + nonessential amino acids). Cells were then washed once in PBS and treated with PE-III and peptide in serum-free media without phenol red, with a 50 μL total volume. After a 2-day incubation with treatment, 50 μL of 10% Alamar blue reagent diluted in serum-free media was added directly to each well (5% Alamar blue final) and incubated for 1.5 h at 37 °C. The plate was then read at 550 equiv/590 em on a Biotek plate reader. Untreated cells were used as a negative control, and MelP5-treated cells served as a positive control.

RAW macrophages = conditions: read-out: EC50 (peptide concentration midpoint for PE-III delivery), PE-III constant, 48 h, Alamar Blue
HeLa cells [2] = test: Direct cytotoxicity without PE-III cargo (Alamar Blue); assay type: cell-based, human; conditions: 200 μM peptide, no PE-III, 48 h
Protocol: The no treatment (no tx) control group contained cells but no peptide or PE-III enzyme. The Alamar Blue intensity of this group was defined as 100% viability. Media alone without cells was defined as 0% viability. […] When 200 μM D-pHD108 and 40 nM PE-III were added together, essentially 100% loss of cell viability was observed, showing that PE-III was effectively delivered to the cytosol by the pHD peptide. […] This observation provides strong support for the hypothesis that PE-III delivery occurs via endocytosis and that it is dependent on endosomal acidification because the L-amino acid peptide, but not the D-amino acid peptide, is susceptible to acidification-dependent proteolytic degradation which occurs in endosomal compartments.
We tested for direct toxicity of the acylated pHD peptides by incubating the same concentrations of acylated pHD peptide variants with cells in the absence of PE-III. […] Thus, all of the apoptosis observed in the PE-III delivery assays was due to the cytosolic delivery of intact PE-III and not to the direct action of the acylated pHD peptide.

Q: “PLGRPQLRRGQF-NH2 [ONEG, reference compound]” was tested. Which PE-III delivery/apoptosis (HeLa cells [1]; same concentration range as unmodified pHD108, 40 nM PE-III) did it give?
A: The PE-III delivery/apoptosis was “no measurable PE-III delivery/apoptosis”.

Q: Which “loss of cell viability” value (HeLa cells [1]; 200 μM peptide + 40 nM PE-III, 37 °C, Alamar Blue) does the source give for CC[C@@H](C)[C@@H](NC(=O)CN)C(=O)NCC(=O)N[C@H](CCC(=O)O)C(=O)N[C@@H](C(=O)N[C@H](CC(C)C)C(=O)N[C@H](Cc1c[nH]cn1)C(=O)N[C@H](CCC(=O)O)C(=O)N[C@H](CC(C)C)C(=O)N[C@H](C)C(=O)N[C@H](CCC(=O)O)C(=O)NCC(=O)N[C@H](CC(C)C)C(=O)N1CCC[C@@H]1C(=O)N[C@H](CCC(=O)O)C(=O)N[C@H](CC(C)C)C(=O)N[C@H](CCC(N)=O)C(=O)N[C@H](CCC(=O)O)C(=O)N[C@H](Cc1c[nH]c2ccccc12)C(=O)N[C@@H](C(=O)N[C@H](Cc1c[nH]cn1)C(=O)N[C@H](C)C(=O)N[C@H](C)C(=O)N[C@H](CCC(N)=O)C(=O)N[C@H](CCC(N)=O)C(=O)N[C@H](CC(C)C)C(N)=O)[C@H](C)CC)C(C)C [D-pHD108] here?
A: The value was roughly 100%.

Q: And the pEC50 (RAW macrophages)?
A: The pEC50 was 4.12.

Q: What about the “effect on cell viability, peptide alone” value (HeLa cells [2]) of the same compound?
A: The value was “no effect on cell viability”.
